Measurements as given in US10143704B2, “Methods for treating cancer” (Epizyme, Inc., priority 2013, dated 2018).

Experiments:
[1] = tested on: MLL-r cells; assay: Pre-clinical study of EPZ-5676: methyl mark inhibition and cell killing; type: cell-based; settings: pre-clinical study plots, FIGS. 3A-3D
[2] = tested on: patients with MLL-r and MLL-PTD; assay: Phase 1 dose escalation/expansion study of EPZ-5676 in leukemia patients; type: in vivo, human
Description: FIG. 1 is a summary of Phase 1 dose escalation study of EPZ-5676. […] The expansion stage of a Phase 1 study is enrolling adult patients with MLL-r and MLL-PTD who are being treated with 90 mg/m^2/day with uninterrupted administration.

CC(C)N(C[C@H]1O[C@@H](n2cnc3c(N)ncnc32)[C@H](O)[C@@H]1O)[C@H]1C[C@@H](CCc2nc3cc(C(C)(C)C)ccc3[nH]2)C1 [Compound A2, (2R,3R,4S,5R)-2-(6-amino-9H-purin-9-yl)-5-((((1r,3S)-3-(2-(5-(tert-butyl)-1H-benzo[d]imidazol-2yl)ethyl)cyclobutyl)(isopropyl)amino)methyl)tetrahydrofuran-3,4-diol]
effect of target methyl mark inhibition on cancer cells [1]: selective killing of genetically defined cancer cells
safety: drug-related treatment discontinuations ([2]; adult patients with MLL-r and MLL-PTD, 90 mg/m^2/day uninterrupted administration, expansion stage of Phase 1): no drug-related treatment discontinuations
effect on leukemic cells in patients (micrographs) ([2]; patients with MLL-r, FIGS. 8A-8F): differentiation effect
